From US20130337028A1, “BIOMIMETIC PEPTIDES FOR BONE AUGMENTATION” (NANOVIS, INC., priority 2010, published 2013)

Legend:
[1] = tested on: Human fetal osteoblasts (hFOB, CRL-11372, ATCC); assay: Cell adhesion testing; format: cell-based; settings: 4 h culture, seeded at 3500 cells/cm^2
Method: (§1) Human fetal osteoblasts (hFOB, CRL-11372, ATCC) of population numbers 7-11 were cultured in Dulbecco's Modified Eagle's Medium (DMEM, GIBCO) supplemented with 10% fetal bovine serum (FBS, Hyclone) and 1% penicillin/streptomycin (P/S, Hyclone) under standard cell culture conditions (that is, a humidified, 5% CO2/95% air environment at 37° C.). Osteoblasts were seeded onto the petri-dish at a density of 3500 cells/cm^2 and were cultured under standard cell culture conditions for 4 h with peptide concentration discussed. After the prescribed time period, non-adherent cells were removed by sequential phosphate buffered saline (PBS) washings. The remaining cells were fixed using 10% normal buffered formaldehyde (Fisher Scientific) for 10 min and 0.1% Triton X-100 (Sigma-Aldrich) for 5 min. Adherent cells were counted in five random fields per substrate under a Zeiss Axiovert 200M fluorescence microscope. Experiments were run in triplicate and repeated three separate times for each substrate.

[2] = tested on: critical sized bone defect; assay: Critical sized bone defect model, proximal tibia and distal femur; format: in vivo, Sinclair minipigs; settings: with nPLGA and HRN based scaffolds, 4 and 8 weeks, FIG. 6
Method: A critical sized bone defect model was used in the proximal tibia and distal femur of 12 Sinclair minipigs (Sinclair Research, MO). Time points to be evaluated are 4 weeks and 8 weeks. Four surgical defects (2 tibia and 2 femur) were created on day 0 in all pigs in one limb and on day 28 in all pigs in the opposite limb. Treatments were applied according to predetermined treatment allocations. MRI evaluations of defects were performed at 4 weeks (all limbs) and 8 weeks (initial defects created on day 0). Following euthanasia, defects were evaluated using microCT and histology to measure bone volume fraction within the defects and with mechanical testing to evaluate compressive stiffness and integration with surrounding bone.
Minipigs were given pre-operative analgesic and antimicrobial drugs immediately prior to anesthesia. Pigs were anesthetized in the Clinical Discovery Laboratory (CDL) using standard swine protocols. One stifle region was aseptically prepared and draped routinely for surgery of the proximal tibia and distal femur. Defects were created in epiphyseal/metaphyseal cancellous bone using an 8 mm drill to a depth of 20 mm. The procedure was repeated in the opposite hind limb at 4 weeks. (Confirmation of the critical defect size in minipigs is to be determined.)
Minipigs were housed in the animal holding facility room 1094 and monitored post-operatively. […]

[3] = tested on: Human fetal osteoblasts (hFOB, CRL-11372, ATCC); assay: Osteoblast proliferation testing (osteoblast density); format: cell-based; settings: after day 3, seeded at 2500 cells/cm^2, FIG. 2
Method: as §1
For osteoblast proliferation studies, similar to the above procedures, osteoblasts were seeded on petri dish at 2500 cells/cm^2 with peptides and cultured for 1, 3 days. After the prescribed time periods, adherent cells were fixed, stained and counted under the fluorescence microscope as described above. All cellular experiments were run in triplicate and repeated at least three times for each substrate.

[4] = tested on: osteoblasts; assay: Cell function tests, overall osteoblast function; format: cell-based, human; settings: summary of total protein, ALP and calcium tests
Method: (§2) Total intracellular protein content of osteoblasts is extremely important since it is the indication of healthy growth and normal cell response. Thus, the amount of protein produced by cells were measured up to 3 weeks of culture after providing complete media. In order to release the intracellular protein, the adhered cells on the substrates were lysed in DI water using a standard four cycle freeze-thaw method. The resulting lysate solution was then used for analysis. The total protein content were determined by a BCA (bicinchoninic acid) assay kit (Pierce) and the absorbance of the solution were measured using a spectrophotometer at a wavelength of 570 nm. The absorbance was then converted to protein content using an albumin standard curve to determine the amount of intracellular protein.
(§3) The resulting lysate solution obtained by a four cycle freeze-thaw method was used to measure the ALP activity using a colorimetric assay (Teco). The absorbance of the solution was measured using a spectrophotometer at a wavelength of 590 nm. The absorbance was converted to concentration using ALP standard and all the data were normalized with total protein content to account for changes in number of cells present on surface.
The calcium content was measured up to 3 weeks in culture using a colorimetric assay (Teco) (see FIG. 4). […]

[5] = tested on: osteoblasts; assay: Total intracellular protein content of osteoblasts (BCA assay); format: cell-based, human; settings: after 7 and 14 days, FIG. 5
Method: as §2

[6] = tested on: osteoblasts; assay: Calcium content / calcium deposition by osteoblasts (colorimetric assay); format: cell-based, human; settings: after 21 days, normalized with total protein content
Method: The calcium content was measured up to 3 weeks in culture using a colorimetric assay (Teco) (see FIG. 4). After all the lysate was aspirated, the surfaces were soaked overnight in 6 N HCl solution to dissolve the deposited calcium. The calcium solution was then reacted with assay reagents and the absorbance of the solution was measured photometrically at 570 nm. The absorbance was then converted to concentration using calcium standards and all the data were normalized with total protein content to account for changes in the number of cells present on surface.

[7] = tested on: osteoblasts; assay: Alkaline phosphatase activity of osteoblasts (colorimetric assay); format: cell-based, human; settings: up to 3 weeks, normalized with total protein content, FIG. 3
Method: as §3

Substance | osteoblast adhesion to substrates [1] | new bone growth (histology) [2] | osteoblast density / attachment on peptide coated surfaces [3] | osteoblast function (overall) [4] | total proteins synthesized by osteoblasts [5] | calcium deposition [6] | alkaline phosphatase activity [7]
KRSR (Ac-KRSR-NH2) [reference compound] | proved to be crucial for maximal osteoblast adhesion to substrates | showed new bone growth | increased osteoblast attachment compared to other peptides studied | showed increased osteoblast function |  |  | 
KRSRSNVILKKYRN (Ac-KRSRSNVILKKYRN-NH2) |  | showed new bone growth | increased osteoblast attachment compared to other peptides studied | showed increased osteoblast function | showed the highest value compared to other peptides and the control | showed highest value compared to other materials studied | superiority
SNVILKKYRN |  |  | increased osteoblast attachment compared to other peptides studied |  |  |  | 
